Tests used:
[1] = tested on: AMPA receptors; test: field EPSP amplitude in field CA1 of rat hippocampal slice; type: cell-based; settings: rat hippocampal slice
Source text: The field EPSP, (excitatory post-synaptic potential) recorded in field CA1 after stimulation of CA3 axons is known to be mediated by AMPA receptors, which are present in the synapses (Kessler et al., Brain Res. 560: 337-341 (1991)). Drugs that selectively block the receptor selectively block the field EPSP (Muller et al., Science, supra). […] These effects are mirrored in the field EPSP (see, for example, Staubli et al., Psychobiology, supra; Xiao et al., Hippocampus, supra; Staubli et al., Hippocampus 2: 4958 (1992)).
To obtain the data shown in Table I, a bipolar nichrome stimulating electrode was positioned in the dendritic layer (stratum radiatum) of the hippocampal subfield CA1 close to the border of subfield CA3, as described in Example 64. Current pulses (0.1 msec) through the stimulating electrode activate a population of the Schaffer-commissural (SC) fibers, which arise from neurons in the subdivision CA3 and terminate in synapses on the dendrites of CA1 neurons. Activation of these synapses causes them to release the transmitter glutamate. Glutamate binds to post-synaptic AMPA receptors, which then transiently open an associated ion channel and permit a sodium current to enter the postsynaptic cell. This current results in a voltage in the extracellular space (the field EPSP), which is recorded by a high impedance recording electrode positioned in the middle of the stratum radiatum of CA1.
The intensity of the stimulation current was adjusted to produce half-maximal EPSPs (typically about 1.5-2.0 mV). Paired stimulation pulses were given every 40 sec with an interpulse interval of 200 msec, as described further in Example 64.
Hippocampal slices were maintained in a recording chamber continuously perfused with artificial cerebrospinal fluid (ACSF). During 15-30 minute intervals, the perfusion medium was switched to one containing various concentrations of the test compounds. Responses collected immediately before and at the end of drug perfusion were superimposed in order to calculate the percent increase in EPSP amplitude.
(§1) The physiological effects of invention compounds were tested in vitro on primary cultures of rat cortical neurons as described by Hamill, O P, et al. in Pflügers Arch 391: 85-100 (1981) or on slices of rat hippocampus according to the following procedure. Excitatory responses (field EPSPs) were measured in hippocampal slices, which were maintained in a recording chamber continuously perfused with artificial cerebrospinal fluid (ACSF). During a 15-30 minute interval, the perfusion medium was switched to one containing various concentrations of the test compounds. Responses collected immediately before and at the end of drug perfusion were superimposed in order to calculate the percent increase in EPSP amplitude.
To conduct these tests, the hippocampus was removed from anesthetized, 2 month old Sprague-Dawley rats and in vitro slices (400 μm thick) were prepared and maintained in an interface chamber at 35° C. using conventional techniques [see, for example, Dunwiddie and Lynch, J. Physiol. 276: 353-367 (1978)]. The chamber was constantly perfused at 0.5 mL/min with ACSF containing (in mM): NaCl 124, KCl 3, KH2PO4 1.25, MgSO4 2.5, CaCl2 3.4, NaHCO3 26, glucose 10 and L-ascorbate 2. A bipolar nichrome stimulating electrode was positioned in the dendritic layer (stratum radiatum) of the hippocampal subfield CA1 close to the border of subfield CA3.
Current pulses (0.1 msec) through the stimulating electrode activate a population of the Schaffer-commissural (SC) fibers, which arise from neurons in the subdivision CA3 and terminate in synapses on the dendrites of CA1 neurons. Activation of these synapses causes them to release the transmitter glutamate. Glutamate binds to the post-synaptic AMPA receptors, which then transiently open an associated ion channel and permit a sodium current to enter the postsynaptic cell. […]

[2] = tested on: AMPA receptor; test: steady-state current induced by glutamate in cortical neurons in primary culture; type: cell-based, rat; settings: 300 μM glutamate on cultured neurons
Description: as §1

melting point	SMILES	AMP: concentration of modulator that increases the amplitude of the fEPSP by 10% [1] [µM]	EC2X: concentration of modulator required to double the steady state current [2] [µM]
–	O=C(c1ccc2c(c1)OC1CCCN1C2=O)N1CCCCC1 (racemic) [Example 5, (R,S)-6-(Piperidylcarbonyl)-3aH-benzo[e]pyrrolidino[2,1-b]1,3-oxazaperhydroin-9-one]	10	2
–	O=C1c2cc3nc4n(c(=O)c3cc2OC2CCCN12)CCC4 (racemic) [Example 6, (R,S)-6a-hydro-3aH-pyrrolidino[2,1-b]pyrrolidino[2′,1′-2,3]quinazolino[7,6-e]1,3-oxazaperhydroine-6,12-dione]	100	1.4
–	CC1CCN(C(=O)c2ccc3c(c2)OC2CCCN2C3=O)CC1 (racemic) [Example 18, (R,S)-6-[(4-methylpiperidyl)carbonyl]-3aH-benzo[e]pyrrolidino[2,1-b]1,3-oxazin-9-one]	100	4
195 to 196 °C	CN1COc2cc3c(cc2C1=O)OC1CCCN1C3=O (racemic) [Example 22, (R,S)-3-methyl-2H,6aH-pyrrolidino[2″,1″-3′,2′]1,3-oxazino[5′,6′-4,5]benzo[e]1,3-oxazaperhydroine-4,10-dione]	10	0.2
197 to 198 °C	CCN1COc2cc3c(cc2C1=O)OC1CCCN1C3=O (racemic) [Example 23, (R,S)-3-ethyl-2H,6aH-pyrrolidino[2″,1″-3′,2′]1,3-oxazino[5′,6′-4,5]benzo[e]1,3-oxazaperhydroine-4,10-dione]	–	–
153 to 154 °C	CCCN1COc2cc3c(cc2C1=O)OC1CCCN1C3=O (racemic) [Example 24, (R,S)-3-propyl-2H,6aH-pyrrolidino[2″,1″-3′,2′]1,3-oxazino[5′,6′-4,5]benzo[e]1,3-oxazaperhydroine-4,10-dione]	–	–
204 to 205 °C	CC(C)N1COc2cc3c(cc2C1=O)OC1CCCN1C3=O (racemic) [Example 25, (R,S)-3-(methylethyl)-2H,6aH-pyrrolidino[2″,1″-3′,2′]1,3-oxazino[5′,6′-4,5]benzo[e]1,3-oxazaperhydroine-4,10-dione]	–	–
184 to 188 °C	O=C1c2cc3c(cc2OCN1C1CCCC1)C(=O)N1CCCC1O3 (racemic) [Example 26, (R,S)-3-cyclopentyl-2H,6aH-pyrrolidino[2″,1″-3′,2′]1,3-oxazino[5′,6′-4,5]benzo[e]1,3-oxazaperhydroine-4,10-dione]	–	–
189 to 190 °C	O=C1CCCN1CCCN1COc2cc3c(cc2C1=O)OC1CCCN1C3=O (racemic) [Example 27, (R,S)-3-[3-(2-oxopyrrolidinyl)propyl]-2H,6aH-pyrrolidino[2″,1″-3′,2′]1,3-oxazino[5′,6′-4,5]benzo[e]1,3-oxazaperhydroine-4,10-dione]	10	1
–	O=C1c2cc3c(cc2OCN1Cc1ccc2c(c1)OCO2)C(=O)N1CCCC1O3 (racemic) [Example 28, (R,S)-3-(2H-benzo[d]1,3-dioxolen-5-ylmethyl)-2H,6aH-pyrrolidino[2″,1″-3′,2′]1,3-oxazino[5′,6′-4,5]benzo[e]1,3-oxazaperhydroine-4,10-dione]	10	6
179 to 180 °C	O=C1c2cc3c(cc2OCN1CC(F)(F)F)C(=O)N1CCCC1O3 (racemic) [Example 29, (R,S)-3-(2,2,2-trifluoroethyl)-2H,6aH-pyrrolidino[2″,1″-3′,2′]1,3-oxazino[5′,6′-4,5]benzo[e]1,3-oxazaperhydroine-4,10-dione]	–	–
153 to 155 °C	O=C1c2cc3c(cc2OCN1CCCN1CCOCC1)C(=O)N1CCCC1O3 (racemic) [Example 32, (R,S)-3-(3-morpholin-4-ylpropyl)-2H,6aH-pyrrolidino [2″,1″-3′,2′]1,3-oxazino[5′,6′-4,5]benzo[e]1,3-oxazaperhydroine-4,10-dione]	–	–
161 to 162 °C	COC(=O)CN1COc2cc3c(cc2C1=O)OC1CCCN1C3=O (racemic) [Example 33, (R,S)-methyl 2-(4,10-dioxo-2H,6aH-pyrrolidino[2″,1″-3′,2′]1,3-oxazino[5′,6′-4,5]benzo[e]1,3-oxazaperhydroin-3-yl)acetate]	–	–
257 to 259 °C	O=C(CN1COc2cc3c(cc2C1=O)OC1CCCN1C3=O)N1CCCC1 (racemic) [Example 34, (R,S)-3-(2-oxo-2-pyrrolidinylethyl)-2H,6aH-pyrrolidin[2″,1″-3′,2′]1,3-oxazino[5′,6′-4,5]benzo[e]1,3-oxazaperhydroine-4,10-dione]	–	–
270 to 275 °C (dec.)	O=C1NCOc2cc3c(cc21)OC1CCCN1C3=O (racemic) [Example 58, (R,S)-2H,3H,6aH-pyrrolidino[2″,1″-3′,2′]1,3-oxazino[5′,6′-4,5]benzo[e]1,3-oxazaperhydroine-4,10-dione]	–	–
–	O=C1c2cc3c(cc2OC2CCCN12)OC1CCCN1C3=O [Example 2, (R,S), (R,S)-3aH,6aH-pyrrolidino[2,1-b]pyrrolidino[2″,1″-3′,2′](1,3-oxazino)[6′,5′-2,1]benzo[4,5-e]1,3-oxazaperhydroine-10,12-dione]	>10	2.6
–	O=C1c2cc3c(cc2OC2CCCN12)C(=O)N1CCOC1O3 [Example 11, (R,S), (R,S)-2H,3H,12aH,6aH-1,3-oxazolidino[2,3-b]pyrrolidino[2″,1″-2′,3′](1,3-oxazino)[5′,6′-2,1]benzo[4,5-e]1,3-oxazaperhydroine-4,10-dione]	1	0.09
189 to 190 °C	O=C1c2cc3c(cc2OCC1CO)C(=O)N1CCCC1O3 [Example 20, (R,S),(R,S)-3-(hydroxymethyl)-6aH-chromano[7,6-e]pyrrolidino[2,1-b]1,3-oxazine-4,10-dione]	–	–
236 to 237 °C	CCN1COc2cc3c(cc2C1=O)OCN(CC)C3=O [Example 21, 3,8-diethyl-2H,7H-1,3-oxazaperhydroino[5′,6′-4,5]benzo[e]1,3-oxazine-4,9-dione]	10	1.8
–	CCN1COc2cc(C(=O)C3CCCCC3)ccc2C1=O [Example 38, 7-(cyclohexylcarbonyl)-3-ethyl-2H-benzo[e]1,3-oxazaperhydroin-4-one]	30	15
–	O=C1c2cc3c(cc2OC2CCCN12)C(=O)N1OCCC1O3 [Example 46, (R,S), (R,S)-2H,3H,3aH,9aH--1,2-oxazolidino[3,2-b]pyrrolidino[2″,1″-3′,2′](1,3-oxazino)[5′,6′-5,4]benzo[e]1,3-oxazaperhydroine-6,12-dione]	3	2.4
237 to 238 °C	O=C1c2cc3c(cc2OCN1CCO)C(=O)N(CCO)CO3 [Example 59, 3,8-bis(2-hydroxyethyl)-2H,7H-1,3-oxazaperhydroino[5′,6′-4,5]benzo[e]1,3-oxazine-4,9-dione]	–	–

From US7799913B2, “Carbonylbenzoxazine compounds for enhancing glutamatergic synaptic responses” (Cortex Pharmaceuticals, Inc., priority 2001, dated 2010)
